Laboratory results published in ChEMBL document CHEMBL3352383, “Trends and exceptions of physical properties on antibacterial activity for Gram-positive and Gram-negative pathogens” (J Med Chem, 2014).
Values after ≈ are worked out from the molar mass of the structure shown.

Columns and labels:
[1] = Inhibition of Escherichia coli TrmD
Pseudomonas aeruginosa [2] = assay: Antibacterial activity against MeXABCDXY-deficient Pseudomonas aeruginosa; assay type: functional; conditions: for MIC: Pseudomonas aeruginosa
Escherichia coli [3] = assay: Antibacterial activity against wild-type Escherichia coli; assay type: functional; conditions: for MIC: Escherichia coli
[4] = Lipophilicity, log D of the compound; conditions: octanol/water
Escherichia coli [5] = assay: Antibacterial activity against tolC-deficient Escherichia coli; assay type: functional; conditions: for MIC: Escherichia coli
[6] = Inhibition of Pseudomonas aeruginosa MurC
Pseudomonas aeruginosa [7] = assay: Antibacterial activity against wild-type Pseudomonas aeruginosa; assay type: functional; conditions: for MIC: Pseudomonas aeruginosa
Staphylococcus aureus [8] = assay: Antibacterial activity against wild-type Staphylococcus aureus in presence of 2% HSA; assay type: functional
Staphylococcus aureus [9] = assay: Ratio of MIC for wild-type Staphylococcus aureus in presence of 2% HSA to MIC for wild-type Staphylococcus aureus; assay type: functional
Escherichia coli [10] = assay: Ratio of MIC for […] tolC-deficient Escherichia coli in presence of 2% HSA to MIC for tolC-deficient Escherichia coli in presence of 2% HSA; assay type: functional
Escherichia coli [11] = assay: Antibacterial activity against tolC-deficient Escherichia coli in presence of 2% HSA; assay type: functional; conditions: for MIC: Escherichia coli
Staphylococcus aureus [12] = assay: Antibacterial activity against wild-type Staphylococcus aureus; assay type: functional
Pseudomonas aeruginosa [13] = assay: Ratio of MIC for wild-type Pseudomonas aeruginosa to MIC for MeXABCDXY-deficient Pseudomonas aeruginosa; assay type: functional
Escherichia coli [14] = assay: Ratio of MIC for wild-type Escherichia coli to MIC for tolC-deficient Escherichia coli; assay type: functional
[15] = Inhibition of Haemophilus influenzae TrmD
Haemophilus influenzae = assay: Antibacterial activity against acrB-deficient Haemophilus influenzae; assay type: functional
[16] = Inhibition of Haemophilus influenzae GlmU
[17] = Inhibition of Escherichia coli GlmU

`Cn1nc(Nc2nc(N[C@H](CO)c3ccccc3)nc3[nH]ncc23)cc1C(C)(C)C` gave an IC50 [1] of under 0.5 nM, an MIC (Pseudomonas aeruginosa [2]) of 1.5 µg/mL and an MIC (Escherichia coli [3]) of over 64 µg/mL. It also gave a logD [4] of 3.33, an MIC (Escherichia coli [5]) of 2 µg/mL and an IC50 [6] of 1 nM. The MIC (Pseudomonas aeruginosa [7]) was over 64 µg/mL.
`CC[C@]1(C)C[C@@H](OC(=O)CSc2nnc(N)[nH]2)[C@]2(C)[C@H](C)CC[C@]3(CCC(=O)[C@H]32)[C@@H](C)[C@@H]1O` [AZAMULIN] showed an MIC (Staphylococcus aureus [8]) of 2 µg/mL, a Ratio (Staphylococcus aureus [9]) of 1 and a Ratio (Escherichia coli [10]) of 2. For the same compound, the MIC (Escherichia coli [11]) was 8 µg/mL, the MIC (Escherichia coli [3]) was over 64 µg/mL and the MIC (Escherichia coli [5]) was 4 µg/mL. It also gave an MIC (Staphylococcus aureus [12]) of 2 µg/mL (≈ 4.18 µM).
In the case of `CC1COc2c(N3CCN(C)CC3)c(F)cc3c(=O)c(C(=O)O)cn1c23` (stereo not drawn) [OFLOXACIN], the MIC (Pseudomonas aeruginosa [2]) is reported as under 0.08 µM, the MIC (Escherichia coli [3]) is reported as 0.24 µM and the Ratio (Pseudomonas aeruginosa [13]) is reported as 62. It also gave a Ratio (Escherichia coli [14]) of 3, an MIC (Escherichia coli [5]) of 0.08 µM and an MIC (Pseudomonas aeruginosa [7]) of 5.2 µM.
With `Fc1ccc(COc2cccc(-c3n[nH]cc3-c3ccncc3)c2)cc1` the Activity (Escherichia coli [11]) was 16 µg/mL, the Activity (Escherichia coli [3]) was 8 µg/mL and the logD [4] was 4.3. The Activity (Escherichia coli [5]) was under 0.063 µg/mL.
In the case of `O=C(NCc1ccc(CN2CC[C@H](O)C2)cc1)c1csc2nc[nH]c(=O)c12`, the IC50 [1] is reported as 290 nM, the IC50 [15] is reported as 420 nM and the logD [4] is reported as 0.37. The MIC (Haemophilus influenzae) was over 64 µg/mL and the MIC (Escherichia coli [5]) was over 64 µg/mL.
With `Oc1ncnc2scc(-c3ccccc3)c12` the IC50 [1] was 17000 nM, the IC50 [15] was under 5000 nM and the MIC (Haemophilus influenzae) was over 64 µg/mL. It also gave an MIC (Escherichia coli [5]) of over 64 µg/mL.
In the case of `C[C@@H](O)[C@H]1C(=O)N2C(C(=O)O)=C([C@H]3CCCO3)S[C@H]12` [FAROPENEM], the MIC (Escherichia coli [3]) is reported as 3.13 µM, the MIC (Escherichia coli [5]) is reported as 6.25 µM and the MIC (Pseudomonas aeruginosa [7]) is reported as under 100 µM.
Work on `N=C(N)SCc1ccc(Cl)cc1` yielded an MIC (Pseudomonas aeruginosa [2]) of 6.25 µM, an MIC (Escherichia coli [3]) of over 50 µM and a Ratio (Pseudomonas aeruginosa [13]) of 2. For the same compound, the MIC (Pseudomonas aeruginosa [7]) was 12.5 µM.
`CC(C)(C)c1nc(-c2ccc3c(c2)OCCO3)c(-c2ccncc2)[nH]1` showed an Activity (Escherichia coli [11]) of 4 µg/mL, an Activity (Escherichia coli [3]) of 32 µg/mL and a logD [4] of 3.22. It also gave an Activity (Escherichia coli [5]) of 0.25 µg/mL.
With `COc1cc(OC)c(S(=O)(=O)N2c3ccccc3CC2C)cc1NC(C)=O` (stereo not drawn) the IC50 [16] was 7800 nM, the IC50 [17] was 2100 nM and the MIC (Haemophilus influenzae) was over 64 µg/mL. For the same compound, the MIC (Escherichia coli [5]) was over 64 µg/mL.
Work on `OCC1CCCCN1c1nc(Nc2cc(C3CC3)[nH]n2)c2cn[nH]c2n1` (stereo not drawn) yielded an IC50 [1] of 1200 nM, an MIC (Pseudomonas aeruginosa [2]) of over 64 µg/mL and an MIC (Escherichia coli [3]) of over 64 µg/mL. The logD [4] was 2.85, the MIC (Escherichia coli [5]) was over 64 µg/mL and the IC50 [6] was 1000 nM. It also gave an MIC (Pseudomonas aeruginosa [7]) of over 64 µg/mL.
With `Cc1cc(O)c(C(=O)N[C@@H](C(=O)N[C@@H]2C(=O)N3C(C(=O)O)=C(CSc4nnnn4C)CS[C@H]23)c2ccc(O)cc2)cn1` [CEFPIRAMIDE] the MIC (Staphylococcus aureus [8]) was over 64 µg/mL, the Ratio (Escherichia coli [10]) was 128 and the MIC (Escherichia coli [11]) was 6.4 µg/mL. For the same compound, the MIC (Escherichia coli [3]) was 16 µg/mL, the MIC (Escherichia coli [5]) was 0.5 µg/mL and the MIC (Staphylococcus aureus [12]) was 32 µg/mL (≈ 52.2 µM).
Work on `COc1cc(OC)c(S(=O)(=O)N2c3ccccc3Oc3ccccc32)cc1NC(=O)CCC(=O)O` yielded an IC50 [16] of 23 nM, an IC50 [17] of 7 nM and an MIC (Haemophilus influenzae) of 32 µg/mL (≈ 64.2 µM). For the same compound, the MIC (Escherichia coli [5]) was over 64 µg/mL.
For `NC[C@H]1OB(O)c2ccccc21`, the MIC (Pseudomonas aeruginosa [2]) was 6.25 µM, the MIC (Escherichia coli [3]) was 12.5 µM and the Ratio (Pseudomonas aeruginosa [13]) was 1. It also gave a Ratio (Escherichia coli [14]) of 1, an MIC (Escherichia coli [5]) of 12.5 µM and an MIC (Pseudomonas aeruginosa [7]) of 6.25 µM.
With `N=C(N)SCc1ccc(Cl)c(Cl)c1` the Activity (Pseudomonas aeruginosa [2]) was 1 µg/mL, the Activity (Escherichia coli [3]) was over 32 µg/mL and the logD [4] was 1.4. It also gave an Activity (Escherichia coli [5]) of over 32 µg/mL and an Activity (Pseudomonas aeruginosa [7]) of 4 µg/mL.
Compound `CCCCCC1=C/C(=C/c2[nH]c(-c3ccc[nH]3)cc2OC)N=C1C` [PRODIGIOSIN] has an MIC (Staphylococcus aureus [8]) of 16 µg/mL, a Ratio (Staphylococcus aureus [9]) of 8 and a Ratio (Escherichia coli [10]) of 2. It also gave an MIC (Escherichia coli [11]) of over 32 µg/mL, an MIC (Escherichia coli [3]) of 2 µg/mL and an MIC (Escherichia coli [5]) of 1 µg/mL. The MIC (Staphylococcus aureus [12]) was 2 µg/mL (≈ 6.18 µM).
`CO[C@H]1CN(c2nc(-c3cnc(N4CCN[C@H](C)C4)cn3)c(C(=O)O)s2)CC[C@H]1NC(=O)c1[nH]c(C)c(Cl)c1Cl` gave an MIC (Pseudomonas aeruginosa [2]) of 3.13 µM, an MIC (Escherichia coli [3]) of over 25 µM and a Ratio (Pseudomonas aeruginosa [13]) of 8. The Ratio (Escherichia coli [14]) was 64, the MIC (Escherichia coli [5]) was 0.39 µM and the MIC (Pseudomonas aeruginosa [7]) was 25 µM.
`CC(C)(O)[C@H](NC(=O)c1ccc(C#CC#CC2CC2)cc1)C(=O)NO` gave an Activity (Escherichia coli [11]) of under 0.063 µg/mL, an Activity (Pseudomonas aeruginosa [2]) of under 0.06 µg/mL and an Activity (Escherichia coli [3]) of under 0.063 µg/mL. For the same compound, the logD [4] was 2.3, the Activity (Escherichia coli [5]) was under 0.063 µg/mL and the Activity (Pseudomonas aeruginosa [7]) was 0.25 µg/mL.
With `CC(C)(O/N=C(\C(=O)N[C@@H]1C(=O)N2C(C(=O)[O-])=C(C[n+]3ccccc3)CS[C@H]12)c1csc(N)n1)C(=O)O` [CEFTAZIDIME] the MIC (Escherichia coli [3]) was 0.8 µM, the Ratio (Escherichia coli [14]) was 1.6 and the MIC (Escherichia coli [5]) was 0.5 µM.
